From paper PMC11748363, “Antimicrobial and Antiproliferative Properties of 2‐Phenyl‐N‐(Pyridin‐2‐yl)acetamides” (Chemical Biology & Drug Design, 2025)
In brackets after ≈: the same amount, converted by molar mass. Where two headings read alike, the source gives them in different places.

How the values were obtained:
[1] = tested on: Acinetobacter baumannii DSM 30007, ATCC 19606; assay: Antibacterial microdilution broth MIC, ACI; type: cell-based
[2] = tested on: Candida albicans CCM 8320, ATCC 24433; assay: Antifungal microdilution broth MIC, CA
[3] = tested on: Mycolicibacterium aurum DSM 43999; assay: Antimycobacterial microdilution broth MIC (resazurin), M. aurum; type: cell-based; settings: DSM43999, read-out: MIC M. aurum
[4] = tested on: Candida krusei CCM 8271, ATCC 6258; assay: Antifungal microdilution broth MIC, CK; settings: Pichia kudriavzevii
[5] = tested on: Pseudomonas aeruginosa CCM 3955, ATCC 27853; assay: Antibacterial microdilution broth MIC, PA; type: cell-based
[6] = tested on: Escherichia coli CCM 3954, ATCC 25922; assay: Antibacterial microdilution broth MIC, EC; type: cell-based
[7] = tested on: Aspergillus fumigatus ATCC 204305; assay: Antifungal microdilution broth MIC, AF
[8] = tested on: Mycolicibacterium smegmatis DSM 43465; assay: Antimycobacterial microdilution broth MIC (resazurin), M. smegmatis; type: cell-based; settings: DSM43465, read-out: MIC M. smegmatis
[9] = tested on: Candida tropicalis CCM 8264, ATCC 750; assay: Antifungal microdilution broth MIC, CT
[10] = tested on: Staphylococcus aureus CCM 4223, ATCC 29213; assay: Antibacterial microdilution broth MIC, SA; type: cell-based; settings: Staphylococcus aureus
[11] = tested on: Aspergillus flavus CCM 8363; assay: Antifungal microdilution broth MIC, AFla
[12] = tested on: Mycobacterium tuberculosis H37Ra; assay: Antimycobacterial microdilution broth MIC (resazurin), Mtb H37Ra; type: cell-based; settings: Mycobacterium tuberculosis, H37RA, read-out: MIC Mtb H37Ra
HepG2 cell line = assay: Cytotoxicity CellTiter 96, HepG2; type: cell-based, human; settings: Homo sapiens, HepG2, 24 h, 24 h incubation; ^c compound precipitated in the testing medium; ^d over the limit of tested concentrations
[13] = tested on: Staphylococcus aureus subsp. aureus CCM 4750, ATCC 43300 (MRSA); assay: Antibacterial microdilution broth MIC, MRSA; type: cell-based; settings: Staphylococcus aureus
[14] = tested on: Enterococcus faecalis CCM 4224, ATCC 29212; assay: Antibacterial microdilution broth MIC, EF; type: cell-based
[15] = tested on: Candida parapsilosis CCM 8260, ATCC 22019; assay: Antifungal microdilution broth MIC, CP; settings: Lodderomyces parapsilosis
[16] = tested on: Klebsiella pneumoniae CCM 4415, ATCC 10031; assay: Antibacterial microdilution broth MIC, KP
[17] = tested on: Trichophyton interdigitale CCM 8377, ATCC 9533; assay: Antifungal microdilution broth MIC, TI; settings: Trichophyton interdigitale
[18] = tested on: Lichtheimia corymbifera CCM 8077; assay: Antifungal microdilution broth MIC, LC
[19] = tested on: Staphylococcus epidermidis CCM 4418, ATCC 12228; assay: Antibacterial microdilution broth MIC, SE; type: cell-based
[20] = ATCC204305, 24 h, read-out: MIC AF 24h
[21] = ATCC204305, 48 h, read-out: MIC AF 48h
[22] = CCM8363, 24 h, read-out: MIC AFla 24h
[23] = CCM8363, 48 h, read-out: MIC AFla 48h
[24] = CCM8077, 24 h, read-out: MIC LC 24h
[25] = CCM8077, 48 h, read-out: MIC LC 48h

O=C(Cc1ccc(C(F)(F)F)cc1)Nc1ccc(Cl)cn1 [Compound 29]
MIC ([1]; 24 h, read-out: MIC ACI 24h): > 500 µM | MIC ([1]; 48 h, read-out: MIC ACI 48h): > 500 µM | MIC ([2]; 24 h, read-out: MIC CA 24h): > 500 µM | MIC ([2]; 48 h, read-out: MIC CA 48h): > 500 µM | MIC [3]: > 500 µg/mL | MIC ([4]; 24 h, read-out: MIC CK 24h): > 500 µM | MIC ([4]; 48 h, read-out: MIC CK 48h): > 500 µM | MIC ([5]; 24 h, read-out: MIC PA 24h): > 500 µM | MIC ([5]; 48 h, read-out: MIC PA 48h): > 500 µM | MIC ([6]; 24 h, read-out: MIC EC 24h): > 500 µM | MIC ([6]; 48 h, read-out: MIC EC 48h): > 500 µM | MIC [7, 20]: > 500 µM | MIC [7, 21]: > 500 µM | MIC [8]: > 500 µg/mL | MIC ([9]; 24 h, read-out: MIC CT 24h): > 500 µM | MIC ([9]; 48 h, read-out: MIC CT 48h): > 500 µM | MIC ([10]; 24 h, read-out: MIC SA 24h): > 500 µM | MIC ([10]; 48 h, read-out: MIC SA 48h): > 500 µM | MIC [11, 22]: > 500 µM | MIC [11, 23]: > 500 µM | MIC ([12]; Calculated from MIC (μg/mL)): 397 µM | MIC [12]: 125 µg/mL | IC50 (HepG2 cell line): > 50 µM | MIC ([13]; 24 h, read-out: MIC MRSA 24h): > 500 µM | MIC ([13]; 48 h, read-out: MIC MRSA 48h): > 500 µM | MIC ([14]; 24 h, read-out: MIC EF 24h): > 500 µM | MIC ([14]; 48 h, read-out: MIC EF 48h): > 500 µM | MIC ([15]; 24 h, read-out: MIC CP 24h): > 500 µM | MIC ([15]; 48 h, read-out: MIC CP 48h): > 500 µM | MIC KP 24h [16]: > 500 µM | MIC KP 48h [16]: > 500 µM | MIC ([17]; 72 h, read-out: MIC TI 72h): > 500 µM | MIC ([17]; 120 h, read-out: MIC TI 120h): > 500 µM | MIC [18, 24]: > 500 µM | MIC [18, 25]: > 500 µM | MIC ([19]; 24 h, read-out: MIC SE 24h): 250 µM (≈ 78.7 µg/mL) | MIC ([19]; 48 h, read-out: MIC SE 48h): 250 µM (≈ 78.7 µg/mL)

O=C(Cc1ccc(F)cc1)Nc1ccccn1 [Compound 31]
MIC ([1]; 24 h, read-out: MIC ACI 24h): > 500 µM | MIC ([1]; 48 h, read-out: MIC ACI 48h): > 500 µM | MIC ([2]; 24 h, read-out: MIC CA 24h): > 500 µM | MIC ([2]; 48 h, read-out: MIC CA 48h): > 500 µM | MIC [3]: 250 µg/mL (≈ 1090 µM) | MIC ([4]; 24 h, read-out: MIC CK 24h): 500 µM (≈ 115 µg/mL) | MIC ([4]; 48 h, read-out: MIC CK 48h): 500 µM (≈ 115 µg/mL) | MIC ([5]; 24 h, read-out: MIC PA 24h): > 500 µM | MIC ([5]; 48 h, read-out: MIC PA 48h): > 500 µM | MIC ([6]; 24 h, read-out: MIC EC 24h): > 500 µM | MIC ([6]; 48 h, read-out: MIC EC 48h): > 500 µM | MIC [7, 20]: > 500 µM | MIC [7, 21]: > 500 µM | MIC [8]: 62.5 µg/mL (≈ 271 µM) | MIC ([9]; 24 h, read-out: MIC CT 24h): > 500 µM | MIC ([9]; 48 h, read-out: MIC CT 48h): > 500 µM | MIC ([10]; 24 h, read-out: MIC SA 24h): 500 µM (≈ 115 µg/mL) | MIC ([10]; 48 h, read-out: MIC SA 48h): > 500 µM | MIC [11, 22]: > 500 µM | MIC [11, 23]: > 500 µM | MIC ([12]; Calculated from MIC (μg/mL)): 543 µM | MIC [12]: 125 µg/mL | IC50 (HepG2 cell line): 517 µM | MIC ([13]; 24 h, read-out: MIC MRSA 24h): > 500 µM | MIC ([13]; 48 h, read-out: MIC MRSA 48h): > 500 µM | MIC ([14]; 24 h, read-out: MIC EF 24h): > 500 µM | MIC ([14]; 48 h, read-out: MIC EF 48h): > 500 µM | MIC ([15]; 24 h, read-out: MIC CP 24h): 500 µM (≈ 115 µg/mL) | MIC ([15]; 48 h, read-out: MIC CP 48h): > 500 µM | MIC KP 24h [16]: > 500 µM | MIC KP 48h [16]: > 500 µM | MIC ([17]; 72 h, read-out: MIC TI 72h): > 500 µM | MIC ([17]; 120 h, read-out: MIC TI 120h): > 500 µM | MIC [18, 24]: > 500 µM | MIC [18, 25]: > 500 µM | MIC ([19]; 24 h, read-out: MIC SE 24h): 250 µM (≈ 57.6 µg/mL) | MIC ([19]; 48 h, read-out: MIC SE 48h): > 500 µM
